Values belong to the compound of their own block, whether it stands above or below them.
Legend:
HEK293 cells = test: Autophagy flux (LC3-II western blot with and without bafilomycin A1); format: cell-based
Description: Autophagy Flux was assessed using western blot by comparing of the cumulative LC3-II levels in HEK293 cells with and without autophagy inhibitor—bafilomycin A1 (vacuolar H+ ATPase inhibitor, 0.1 μM). Bafilomycin A1 inhibits autophagosomes degradation by fusion with lysosome since it prevents the lysosome acidification. LC3-II is an autophagosomal membrane protein therefore it is used as autophagy marker. HEK293 cells were seeded in a 6-well plate 24 hours before treatment in DMEM growth media. The cells were incubated with or without bafilomycin A1 and 3-Methyladenine (3-MA) in EBSS for 2 hours (3-MA, 5 mM) in 37° C. and 5% CO2. 3-MA acts as an autophagy inhibitor since it inhibits III phosphatidylinositol 3-kinases (PI-3K) which produce the endogenous PI3P. At the second hour the cells were treated with Q-starch/PI3P complexes at N/P ratio of 2 and with PI3P alone as control (final PI3P concentration in each well was 0.5 μM).
Up-regulation of autophagy in HEK293 cells with the Q-starch/PI3P complexes was assessed by comparing the autophagy flux for the following conditions (FIG. 7): flux after 3 hours of serum starvation, flux after inhibition of the formation of endogenous PI3P by 3-MA (3-Methyladenine), flux after treatment with 3-MA and complexes at N/P ratio of 2 and flux after treatment with 3-MA and PI3P.

[1] = Zeta potential (Zetasizer, Smoluchowski model); format: physicochemical; conditions: in mV (unit assumed)
Description: The hydrodynamic size of the complexes was measured by dynamic light scattering (DLS). Spectra were collected by using CGS-3, (ALV, Langen, Germany). The laser power was 20 mW at the He—Ne laser line (632.8 nm). Correlograms were calculated by ALV/LSE 5003 correlator, which were collected at 90°, during 20 s for 10 times, at 25° C. The correlograms were fitted with version of the program CONTIN (provencher, 1982). Samples of complexes were each diluted to a final volume of 1 mL in DDW. Each sample was measured three times and solutions were further diluted until results were independent of dilution rate. Complexes' size is presented as average of triplicates. Samples from DLS were transferred to U-tube cuvette (DTS 1070, Malvern) for subsequent zeta potential measurements using Zetasizer (ZN-NanoSizer, Malvern, England). Each sample was measured at automatic mode, at 25° C. and the Smoluchowski model was used to calculate the zeta potential. For each sample the zeta potential value was presented as the average value of three runs, and the average value of each N/P ratio is presented as the average of triplicates.

[2] = Cryo-TEM imaging of complex size and geometry in solution; format: physicochemical; conditions: FIG. 3; complexes at N/P ratios of 2 to 3
Description: Complex size and geometry in solution were visualized using Cryo-TEM. TEM at cryogenic temperature (Cryo-TEM) is used for direct imaging of solutions and dispersions. Vitrified specimens are prepared on a copper grid coated with a perforated lacy carbon 300 mesh (Ted Pella Inc.). A typically 4 μl drop from the solution is applied to the grid and blotted with a filter paper to form a thin liquid film of solution. The blotted sample are immediately plunged into liquid ethane at its freezing point (−183° C.). The procedure is performed automatically in the Plunger (Lieca EM GP). The vitrified specimens are transferred into liquid nitrogen for storage. the samples are studied using a FEI Tecnai 12 G2 TEM, at 120 kV with a Gatan cryo-holder maintained at −180° C., and images are recorded on a slow scan cooled charge-coupled device CCD camera Gatan manufacturer. Images are recorded with the Digital Micrograph software package, at low dose conditions, to minimize electron beam radiation damage.

average zeta potential ([1]; non-complexed alone (FIG. 4B): 0.5 μM PI3P, 0.45 mg/L Q-starch): −14.8±3.8
Structure (SMILES): CCCCCCCC(=O)OC[C@H](COP(=O)(O)O[C@@H]1[C@H](O)[C@H](OP(=O)(O)O)[C@@H](O)[C@H](O)[C@H]1O)OC(=O)CCCCCCC [PI3P, Phosphatidylinositol 3-phosphate diC8]
autophagy flux (difference in LC3-II levels with and without bafilomycin A1) (HEK293 cells; with 3-MA 5 mM in EBSS, final PI3P 0.5 μM, complexes at N/P=2): did not affect the levels of autophagy flux

shape in cryo-TEM images [2]: shape of long filaments
average zeta potential ([1]; non-complexed component alone (FIG. 1)): −20.83
Structure (SMILES): CCCCCCCCCCCCCCCC(=O)OC[C@H](COP(=O)(O)OC1[C@H](O)[C@H](OP(=O)(O)O)C(OP(=O)(O)O)[C@H](OP(=O)(O)O)[C@H]1O)OC(=O)CCCCCCCCCCCCCCC (some centres unmarked) [PIP3, phosphatidylinositol (3,4,5) trisphosphate diC16]

Structure (SMILES): Cn1cnc(N)c2ncnc1-2 [3-MA, 3-Methyladenine]
autophagy flux (difference in LC3-II levels with and without bafilomycin A1) (HEK293 cells; 3-MA 5 mM alone, compared to serum starvation): decrease in the autophagy flux
